Columns and labels:
[1] = target: T1, Tubulin (Homo sapiens) (UniProt P68371+Q9H4B7+P0DPH7+P68366+Q13509+Q71U36+P04350+Q3ZCM7+P07437+P68363+Q9BQE3+Q6PEY2+Q13885+Q9BVA1+Q9BUF5); test: Antiproliferative activity against NCI/ADR-RES […] cancer cell line relative to paclitaxel; assay type: functional, cell-based
[2] = tested on: MCF7; test: Antiproliferative activity against MCF7 breast cancer cell line relative to paclitaxel; assay type: functional, Homo sapiens
[3] = target: T1, Tubulin (Homo sapiens); test: Effect on tubulin polymerization by tubulin assembly assay relative to paclitaxel; assay type: protein-complex assay

SMILES	Ratio ED50 [1]	Ratio ED50 [2]	Ratio ED50 [3]
CC(=O)O[C@@]12CO[C@@H]1C[C@H](O)[C@@]1(C)C(=O)CC3=C(C)[C@@H](OC(=O)[C@H](O)[C@@H](NC(=O)c4ccccc4)c4ccccc4)C[C@@](O)([C@@H](OC(=O)c4ccccc4)[C@H]21)C3(C)C	0.79	0.87	2.2
CC(=O)O[C@@]12CO[C@@H]1CC[C@@]1(C)C(=O)CC3=C(C)[C@@H](OC(=O)[C@H](O)[C@@H](NC(=O)c4ccccc4)c4ccccc4)C[C@@](O)([C@@H](OC(=O)c4ccccc4)[C@H]21)C3(C)C	0.21	9	2
CC(=O)O[C@H]1C(=O)[C@]2(C)CC[C@H]3OC[C@@]3(OC(C)=O)[C@H]2[C@H](OC(=O)c2ccccc2)[C@]2(O)C[C@H](OC(=O)[C@H](O)[C@@H](NC(=O)c3ccccc3)c3ccccc3)C(C)=C1C2(C)C	1	30	1.4
